These results are taken from patent US20110105738A1, “DIARYL HEPATONOID-BASED COMPOUNDS USEFUL AS VIRUS INHIBITORS” (priority 2008, published 2011).

Data set [1] relates to CEF (chicken embryo fibroblasts).
Data set [2] relates to avian influenza virus KBNP-0028 (KCTC 10866BP). It counts as cell-based, A/chicken/Korea/SNU0028/2000(H9N2).

Structures are written as SMILES. Where two headings read alike, the source gives them in different places.

As for `O=C(/C=C/CCc1ccc(O)cc1)CCc1ccc(O)c(O)c1` [12B-AJ-7A-1, 1-(3′,4′-dihydroxyphenyl)-7-(4″-hydroxyphenyl)-4(E)-hepten-3-one], the “Cytotoxicity, MTT assay reading” value came out at 0.424 in data set [1] (6.25 μg/mL); 0.418 in data set [1] (12.5 μg/mL); 0.347 in data set [1] (25 μg/mL); 0.478 in data set [1] (50 μg/mL); 0.411 in data set [1] (100 μg/mL); 0.531 in data set [1] (200 μg/mL). Further, the “antiviral activities (in words)” value in data set [2] is on record as “excellent antiviral activities”. The “Number of wells which hemagglutination occurs (among 6 wells)” value (from here on “Number”) in data set [2] (12.5 μg/mL) worked out at 3; in data set [2] (25 μg/mL), 3; in data set [2] (50 μg/mL) it was 2; in data set [2] (100 μg/mL) it was 0.

Take `O=C(/C=C/CCc1ccc(O)c(O)c1)CCc1ccc(O)c(O)c1` [12B-AJ-7B, 1,7-bis(3,4-dihydroxyphenyl)-4(E)-hepten-3-one]: the “Cytotoxicity, MTT assay reading” value was found to be 0.413 in data set [1] (6.25 μg/mL); 0.364 in data set [1] (12.5 μg/mL); 0.345 in data set [1] (25 μg/mL); 0.399 in data set [1] (50 μg/mL); 0.427 in data set [1] (100 μg/mL); 0.560 in data set [1] (200 μg/mL). Besides, the “Number” value in data set [2] (12.5 μg/mL), in data set [2] (25 μg/mL), in data set [2] (50 μg/mL) and in data set [2] (100 μg/mL) was 3 each time.

For the molecule `O=C(CCc1ccc(O)c(O)c1)CC(CCc1ccc(O)cc1)O[C@@H]1OC[C@@H](O)[C@H](O)[C@H]1O` (stereo partly drawn) [12B-AJ-11B-1, 1-(3,4-dihydroxyphenyl)-7-(4-hydroxyphenyl)-3-heptanone-5-o-β-D-xylopyranose], the “Cytotoxicity, MTT assay reading” value in data set [1] (6.25 μg/mL) is on record as 0.535; in data set [1] (12.5 μg/mL), 0.399; in data set [1] (25 μg/mL), 0.483; in data set [1] (50 μg/mL), 0.487; in data set [1] (100 μg/mL), 0.316; in data set [1] (200 μg/mL) it was 0.363. Moreover, in data set [2], the “antiviral activities (in words)” value is reported as “excellent antiviral activities”. The “Number” value in data set [2] (12.5 μg/mL) amounted to 3; in data set [2] (25 μg/mL), 3; in data set [2] (50 μg/mL), 3; in data set [2] (100 μg/mL) it was 1.

In the case of `O=C(CCc1ccc(O)cc1)C[C@H](CCc1ccc(O)cc1)O[C@@H]1OC[C@@H](O)[C@H](O)[C@H]1O` [12B-AJ-16A, (5S)1,7-bis(4-hydroxyphenyl)-5-o-β-D-xylopyranoside-heptane-3-one], the “Cytotoxicity, MTT assay reading” value came to 0.441 in data set [1] (6.25 μg/mL); 0.427 in data set [1] (12.5 μg/mL); 0.432 in data set [1] (25 μg/mL); 0.451 in data set [1] (50 μg/mL); 0.302 in data set [1] (100 μg/mL); 0.309 in data set [1] (200 μg/mL). The “Number” value in data set [2] (12.5 μg/mL) was 3; in data set [2] (25 μg/mL) it was 3; in data set [2] (50 μg/mL), 1; in data set [2] (100 μg/mL) it was 0.
